The values below come from US20060241108A1, “Substituted phenoxazines and acridones as inhibitors of AKT” (St. Jude Children's Research Hospital, priority 2005, published 2006).

Common to all, as to type: cell-based, human
In one assay the test system is AKT. As to the kind of experiment: Inhibition of IGF-I stimulated AKT phosphorylation (Ser473) in Rh1 cells, Western blot. Particulars: 5 μM, 1 hour, serum starved Rh1 cells, IGF-I 10 ng/ml 10 minutes; average of two experiments. Here is the method: Cell lines and growth conditions. The human cell lines Rh1, Rh18, and Rh30 (ATCC Deposit # CRL 2061) have been described, e.g., by Hazelton et al. Cancer Res 1987;47:4501-4507 and Hosoi et al. Cancer Res. 1999;59:886-894. Rh1, Rh18 and Rh30 cells can each be grown in antibiotic free RPMI-1640 medium (available from BioWhittaker, Walkersville, Md.), supplemented with 10% fetal bovine serum (available from HyClone Laboratories, Logan, Utah) and 2 mM L-glutamine (available from BioWhittaker, Walkersville, Md.) at 37° C. in an atmosphere of 5% CO2. For serum free experiments, cells can be cultured in modified N2E (MN2E) medium (DMEM/F-12, 1:1 mixture) (Sigma, St. Louis, Mo.) supplemented with 1 μg/ml human holo transferrin, 30 nM sodium selenite, 20 nM progesterone, 100 μM putrescine, 30 nM vitamin E phosphate, and 50 μM ethanolamine. Cells in MN2E medium containing 5 μg/ml bovine fibronectin (available from Sigma, St. Louis, Mo.) are preferably plated, and allowed to attach overnight at 37° C. in a humidified, 5% CO2 atmosphere.
(§1) Cellular screening for inhibitors. Rh1, Rh18 and Rh30 cells can each be seeded at a density of 4×10^6/10-cm plate in serum-free medium for overnight attachment. The cells can then be exposed to 0.1% DMSO or to a test compound (for example, a phenoxazine or acridone compound) for one hour, then stimulated with Insulin-like growth factor-I (IGF-I) (10 ng/ml) for 10 minutes.
(§2) Western blot analysis. Cells are rapidly washed with ice-cold phosphate-buffered saline (PBS), placed on ice, and lysed in mammalian protein extraction reagent (M-PER; available from Pierce, Rockford, Ill.) containing one Complete™ mini protease inhibitor tablet (available from Boehringer Mannheim, Mannheim, Germany), 1 mM phenylmethylsulfonyl fluoride, 1 mM Na3VO4 and 1 mM NaF. Cellular debris is pelleted by centrifugation at 17,500×g for 10 minutes at 4° C. The protein concentration of the supernatants is measured by the bicinchoninic acid assay (e.g., using the BCA™ Protein Assay Kit, Pierce, Rockford, Ill., catalog number 23225 or 23227) using bovine serum albumin as the standard.
For the analysis of AKT, ERK-1/2, mTOR, p70S6 kinase, ribosomal protein S6 (rpS6 or S6), and glycogen synthase kinase 3 (GSK-3), equivalent amounts of protein can be separated on a 12% SDS-polyacrylamide gel (available from BioRad, Hercules, Calif.) by electrophoresis and subsequently transferred to a nitrocellulose membrane (also available from BioRad). After a 1 hour incubation in 1×TBS containing 0.05% Tween 20 and 5% blocking reagent (skim milk) (available from Upstate Biotechnology, Lake Placid, N.Y.) at room temperature, the wet nitrocellulose membranes are incubated with appropriate antibodies (available from Cell Signaling Technology, Beverly, Mass.): rabbit polyclonal antiserum specific for the phosphorylated Ser473 or Thr308 of AKT (dilution 1:1000); rabbit polyclonal antiserum specific for phosphorylated Thr202/Tyr204 of ERK-1/2 (dilution 1:1000); rabbit polyclonal antiserum specific for phosphorylated Ser2448 or Ser2481 of mTOR (dilution 1:1000); rabbit polyclonal antiserum specific for phosphorylated Thr389 of p70S6 kinase (dilution 1:4000); rabbit polyclonal antiserum specific for phosphorylated Ser235/236 of rpS6 (dilution 1:1000); or rabbit polyclonal antiserum specific for phosphorylated Ser21/9 of GSK-3α/β (dilution 1:1000). Horseradish peroxidase-conjugated goat anti-rabbit IgG antibody (dilution 1:10,000) can be used as the secondary antibody. Immunoreactive protein can be visualized using Renaissance chemiluminescence reagent (available from Life Science Products Inc., Boston, Mass.).
For these assays, Rh1 cells are seeded in serum-free medium for overnight attachment. The serum starved Rh1 cells are then exposed to 1-5 μM of a compound in Table I for 1 hour before stimulating with IGF-I (10 ng/ml) for 10 minutes. […]

The test system of assay [1] is mTOR (Ser2448 and Ser2481), rpS6 (Ser235/236) and p70S6 kinase (Thr389). As to the kind of experiment: IGF-I induced phosphorylation of AKT downstream targets in Rh1 cells, Western blot. The settings on record: 3.5 to 5.0 μM, 1 hour, Rh1 cells serum-free, IGF-I 10 minutes. Here is the method:
as §1, §2
For the analysis of AKT, ERK-1/2, mTOR, p70S6 kinase, ribosomal protein S6 (rpS6 or S6), and glycogen synthase kinase 3 (GSK-3), equivalent amounts of protein can be separated on a 12% SDS-polyacrylamide gel (available from BioRad, Hercules, Calif.) by electrophoresis and subsequently transferred to a nitrocellulose membrane (also available from BioRad). […]
A general note: Immunoblotting shows a protein as a band on a membrane.

For assay [2], the system named is AKT, mTOR and rpS6. In words: IGF-1-induced phosphorylation of AKT, mTOR and rpS6 in serum-starved Rh18 cells. Here is the method:
as §1
as §2, with “standard. […]” for “standard.”

Assay [3] relates to AKT, mTOR and rpS6. In words: IGF-1-induced phosphorylation of AKT, mTOR and rpS6 in serum-starved Rh30 cells. Here is the method:
as §1
as §2, with “standard. […]” for “standard.”

For assay [4], the system named is Rh1, Rh18 and/or Rh30 cells. In words: Determination of apoptosis, cell line not specified for the result. The source says: Determination of apoptosis.
Similar experiments can be performed using compounds that are relatively poor inhibitors of AKT in vitro but, preferably, are chemically similar to the phenoxazine or other compounds tested that are effective inhibitors of AKT. For example, the apoptosis of cells in response to the phenoxazine compound 12B or 20B, which are relatively poor inhibitors of AKT in vitro, can be compared to apoptosis of cells in response to the chemically similar compounds 10B and/or 15B, which are effective AKT inhibitors. In this way, a skilled practitioner can evaluate whether apoptosis observed in response to an effective AKT inhibitor (e.g., apoptosis observed in response to compound 10B or 15B) is due to a general toxic effect rather than AKT inhibition.

As to “10-[3′-[(β-hydroxyethyl)piperazino]propyl]-2-chlorophenoxazine [Compound 8B]”, the “Inhibition (phosphorylation of AKT at Ser 473)” value in the assay with AKT is on record as “+++ (+++ ≈ 75% inhibition)”. The “inhibition of IGF-I induced phosphorylation of mTOR, rpS6 and p70S6 kinase” value in assay [1] is “markedly inhibited”.
Take “10-(N-pyrrolidinoacetyl)-2-chlorophenoxazine [Compound 20B]”: the “Inhibition (phosphorylation of AKT at Ser 473)” value in the assay on AKT is recorded as “−−− (−−− <25% inhibition)”. Also, the “block of IGF-1-induced phosphorylation of AKT, mTOR and rpS6” value was “possible exception” in the assay on AKT, mTOR and rpS6 [2]; “possible exception” in the assay with AKT, mTOR and rpS6 [3]. Further, in assay [4], the “induction of apoptosis” value is given as “neither the compound 12B or 20B”.
